Data reported in patent publication US20050026933A1, “Use of a combination of an epidermal growth factor receptor kinase inhibitor and cytotoxic agents for treatment and inhibition of cancer” (Wyeth Holdings Corporation, priority 2003, published 2005).

Experiments:
[1] = tested on: LoVo colon carcinoma cells; test: LoVo colon carcinoma xenograft in athymic nu/nu mice; format: in vivo, mouse xenograft of human tumor cells; conditions: 5-FU study LoVo, EKB-569 20 mg/kg PO days 1-20, 5-FU 40 mg/kg IP days 1, 5, 9, 13
Protocol: (§1) In all of the experiments, athymic nu/nu female mice (Charles River Laboratories) were injected SC (subcutaneously) with either 7×10^6 or 1×10^7 LoVo colon carcinoma cells or 5×10^6 GEO colon carcinoma cells. When tumors attained a mass of between 80 and 120 mg (Day 0), animals were randomized into treatment groups each containing between 5 and 20 animals, (dependent upon the experiment). Mice were treated orally (PO) with EKB-569 or vehicle control for 15 to 20 days, depending upon the experiment. EKB-569 was formulated in 0.5% Methocel, 0.4% Tween 80. Cytotoxic agents, (paclitaxel, 5-FU and cisplatin), were given either by […] (IP) or intravenous (IV) administration on either days 1, 5 and 9 or on days 1, 5, 9 and 13, depending upon the experiment. Tumor mass ([Length×Width^2]/2) was determined every seven days post staging for up to 35 days. The relative tumor growth, (Mean tumor mass on day measured divided by the mean tumor mass on day zero), and the percent Tumor/Control, (% T/C), was then calculated for each treatment group for as long as the control group remained. The % T/C is defined as the Mean Relative Tumor Growth of the Treated Group divided by the Mean Relative Tumor Growth of Vehicle Control Group multiplied by 100. The data was analyzed via Student's one-tailed t-test. A p-value≦0.05 indicates a statistically significant reduction in relative tumor growth of treated group compared with the vehicle control group or drug treated group.
The activity of EKB-569 in combination with paclitaxel was assessed using the human colon carcinoma lines LoVo and GEO. In the LoVo experiment, 20 mg/kg EKB-569 was administered PO for 20 consecutive days. Twenty mg/kg paclitaxel prepared in 2% cremophor el and 2% ethanol was administered IV on days 1, 5, 9 and 13.
(§2) The activity of EKB-569 in combination with 5-FU was assessed in LoVo and GEO xenografts. In the LoVo experiment, 20 mg/kg EKB-569 was administered for 20 consecutive days while 40 mg/kg 5-FU was administered IP on days 1, 5, 9 and 13. In the GEO experiment, 80 mg/kg EKB-569 was administered PO for 15 consecutive days while 40 mg/kg 5-FU was administered IP on days 1, 5, 9 and 13. […] At all time points, tumor size was smaller in the combination group compared with the single agent groups in these experiments.
The activity of EKB-569 in combination with cisplatin was assessed in LoVo and GEO xenografts. In the LoVo study, 20 mg/kg EKB-569 was administered PO for 20 consecutive days while 3 mg/kg cisplatin was administered IP on days 1, 5 and 9. In the GEO experiment, 80 mg/kg EKB-569 was administered PO for 15 consecutive days while 3 mg/kg cisplatin was administered I P on days 1, 5, 9 and 13. In both these experiments, combination therapy gave statistically significant, (p≦0.05), tumor growth inhibition than either drug alone at 3 out of 4 time points examined.

[2] = tested on: GEO colon carcinoma cells; test: GEO colon carcinoma xenograft in athymic nu/nu mice; format: in vivo, human; conditions: for RTG (Relative Tumor Growth): EKB-569 80 mg/kg PO, paclitaxel 25 mg/kg IV
Protocol: as §1
In the experiment of Table 1 (GEO), 80 mg/kg EKB-569 was administered PO for 15 consecutive days while 25 mg/kg paclitaxel was administered IV on days 1, 5, 9 and 13 (Table 1). The results obtained in this study were identical to that in the LoVo study except that there was up to 85% tumor growth inhibition seen in the group receiving combination therapy.
as §2, with “experiments. […]” for “experiments.”

[3] = 5-FU study GEO, Day 8, EKB-569 80 mg/kg PO days 1-15, 5-FU 40 mg/kg IP days 1, 5, 9, 13
[4] = 5-FU study GEO, Day 14, EKB-569 80 mg/kg PO days 1-15, 5-FU 40 mg/kg IP days 1, 5, 9, 13
[5] = 5-FU study GEO, Day 21, EKB-569 80 mg/kg PO days 1-15, 5-FU 40 mg/kg IP days 1, 5, 9, 13
[6] = 5-FU study GEO, Day 28, EKB-569 80 mg/kg PO days 1-15, 5-FU 40 mg/kg IP days 1, 5, 9, 13
[7] = paclitaxel study, Day 6, EKB-569 80 mg/kg PO days 1-15, paclitaxel 25 mg/kg IV days 1, 5, 9, 13
[8] = paclitaxel study, Day 15, EKB-569 80 mg/kg PO days 1-15, paclitaxel 25 mg/kg IV days 1, 5, 9, 13

Row | SMILES | % T/C ([1]; Day 7) | % T/C ([1]; Day 14) | % T/C ([1]; Day 21) | % T/C ([1]; Day 29) | % T/C [2, 3] | % T/C [2, 4] | % T/C [2, 5] | % T/C [2, 6] | % T/C [2, 7] | RTG (Relative Tumor Growth) ([2]; paclitaxel study, Day 6) | % T/C [2, 8] | RTG (Relative Tumor Growth) ([2]; paclitaxel study, Day 15) | RTG (Relative Tumor Growth) ([2]; paclitaxel study, Day 21) | RTG (Relative Tumor Growth) ([2]; paclitaxel study, Day 28)
1 | CCOc1cc2ncc(C#N)c(Nc3ccc(F)c(Cl)c3)c2cc1NC(=O)C=CCN(C)C [EKB-569, 4-dimethylamino-but-2-enoic acid [4-(3-chloro-4-fluoro-phenylamino)-3-cyano-7-ethoxy-quinolin-6-yl]-amide] | 84% | 67% | 77% | 95% | 55% | 54% | 81% | 95% | 51% | 1.78 | 53% | 3.33 | 5.19 | 5.78
2 | CC(=O)O[C@H]1C(=O)[C@@]2(C)[C@H]([C@H](OC(=O)c3ccccc3)[C@]3(O)C[C@H](OC(=O)[C@H](O)[C@@H](NC(=O)c4ccccc4)c4ccccc4)C(C)=C1C3(C)C)[C@]1(OC(C)=O)CO[C@@H]1C[C@@H]2O [Paclitaxel, paclitaxel] |  |  |  |  |  |  |  |  | 46% | 1.63 | 43% | 2.69 | 2.24 | 2.70
3 | O=c1[nH]cc(F)c(=O)[nH]1 [5-FU, 5-Fluorouracil] | 59% | 63% | 85% | 77% | 58% | 47% | 50% | 60% |  |  |  |  |  | 
